{
  "source": "patent US20120277197A1",
  "about": "“TIGECYCLINE FORMULATIONS” (WYETH, priority 2008, published 2012)",
  "test": "Effect of pH on stability of tigecycline 0.50 mg/ml in Normal Saline, in a flask at 25° C.",
  "type": "physicochemical",
  "procedure": "The effect of pH on the stability of tigecycline formulations having a concentration of 0.50 mg tigecycline/ml in a Normal Saline solution was studied by analyzing the variation of tigecycline content, total impurity content, and the concentration of tigecycline epimer at different pH values, either in the presence of air or under an atmosphere having an oxygen content of less than 1 ppm, in a flask at 25° C.",
  "key": {"[1]": {"conditions": "pH 3, 0 h, in the presence of air"}, "[2]": {"conditions": "pH 3, 8 h, in the presence of air"}, "[3]": {"conditions": "pH 3, 24 h, in the presence of air"}, "[4]": {"conditions": "pH 3, 72 h, in the presence of air"}, "[5]": {"conditions": "pH 3.5, 0 h, in the presence of air"}, "[6]": {"conditions": "pH 3.5, 8 h, in the presence of air"}, "[7]": {"conditions": "pH 3.5, 24 h, in the presence of air"}, "[8]": {"conditions": "pH 3.5, 72 h, in the presence of air"}, "[9]": {"conditions": "pH 4.0, 0 h, in the presence of air"}, "[10]": {"conditions": "pH 4.0, 24 h, in the presence of air"}, "[11]": {"conditions": "pH 4.0, 72 h, in the presence of air"}, "[12]": {"conditions": "pH 4.5, 0 h, in the presence of air"}, "[13]": {"conditions": "pH 4.5, 8 h, in the presence of air"}, "[14]": {"conditions": "pH 4.5, 24 h, in the presence of air"}},
  "data": [
    {"compound": "CN(C)c1cc(NC(=O)CNC(C)(C)C)c(O)c2c1C[C@H]1C[C@H]3[C@H](N(C)C)C(O)=C(C(N)=O)C(=O)[C@@]3(O)C(O)=C1C2=O", "note": "[tigecycline, Tigecycline]", "values": [
      {"measurement": "pH at which the solution is most stable, based on total impurity content and tigecycline content", "setting": "in the presence of air", "result": "4.5-5.0"},
      {"measurement": "pH at which the solution is most stable", "setting": "oxygen <1 ppm", "result": "4.5-6.0"},
      {"measurement": "Total impurity content as a % of initial weight of tigecycline", "setting": "[1]", "result": 0.36, "unit": "%"},
      {"measurement": "Total tigecycline epimer content as a % of initial weight of tigecycline", "setting": "[1]", "result": 0.19, "unit": "%"},
      {"measurement": "Percentage of tigecycline remaining", "setting": "pH 3.0, 0 h, in the presence of air", "result": 100, "unit": "%"},
      {"measurement": "Total impurity content as a % of initial weight of tigecycline", "setting": "pH 3, 0 h, oxygen <1 ppm", "result": 0.258, "unit": "%"},
      {"measurement": "Total tigecycline epimer content as a % of initial weight of tigecycline", "setting": "pH 3, 0 h, oxygen <1 ppm", "result": 0.152, "unit": "%"},
      {"measurement": "Percentage of tigecycline remaining", "setting": "pH 3.0, 0 h, oxygen <1 ppm", "result": 100.0, "unit": "%"},
      {"measurement": "Total impurity content as a % of initial weight of tigecycline", "setting": "[2]", "result": 0.907, "unit": "%"},
      {"measurement": "Total tigecycline epimer content as a % of initial weight of tigecycline", "setting": "[2]", "result": 0.83, "unit": "%"},
      {"measurement": "Percentage of tigecycline remaining", "setting": "pH 3.0, 8 h, in the presence of air", "result": 100, "unit": "%"},
      {"measurement": "Total impurity content as a % of initial weight of tigecycline", "setting": "pH 3, 8 h, oxygen <1 ppm", "result": 0.628, "unit": "%"},
      {"measurement": "Total tigecycline epimer content as a % of initial weight of tigecycline", "setting": "pH 3, 8 h, oxygen <1 ppm", "result": 0.485, "unit": "%"},
      {"measurement": "Percentage of tigecycline remaining", "setting": "pH 3.0, 8 h, oxygen <1 ppm", "result": 99.55, "unit": "%"},
      {"measurement": "Total impurity content as a % of initial weight of tigecycline", "setting": "[3]", "result": 2.564, "unit": "%"},
      {"measurement": "Total tigecycline epimer content as a % of initial weight of tigecycline", "setting": "[3]", "result": 2.27, "unit": "%"},
      {"measurement": "Percentage of tigecycline remaining", "setting": "pH 3.0, 24 h, in the presence of air", "result": 98, "unit": "%"},
      {"measurement": "Total impurity content as a % of initial weight of tigecycline", "setting": "pH 3, 24 h, oxygen <1 ppm", "result": 2.391, "unit": "%"},
      {"measurement": "Total tigecycline epimer content as a % of initial weight of tigecycline", "setting": "pH 3, 24 h, oxygen <1 ppm", "result": 2.267, "unit": "%"},
      {"measurement": "Percentage of tigecycline remaining", "setting": "pH 3.0, 24 h, oxygen <1 ppm", "result": 98.08, "unit": "%"},
      {"measurement": "Total impurity content as a % of initial weight of tigecycline", "setting": "[4]", "result": 8.3, "unit": "%"},
      {"measurement": "Total tigecycline epimer content as a % of initial weight of tigecycline", "setting": "[4]", "result": 7.58, "unit": "%"},
      {"measurement": "Percentage of tigecycline remaining", "setting": "pH 3.0, 72 h, in the presence of air", "result": 93, "unit": "%"},
      {"measurement": "Total impurity content as a % of initial weight of tigecycline", "setting": "pH 3, 72 h, oxygen <1 ppm", "result": 7.853, "unit": "%"},
      {"measurement": "Total tigecycline epimer content as a % of initial weight of tigecycline", "setting": "pH 3, 72 h, oxygen <1 ppm", "result": 7.651, "unit": "%"},
      {"measurement": "Percentage of tigecycline remaining", "setting": "pH 3.0, 72 h, oxygen <1 ppm", "result": 92.24, "unit": "%"},
      {"measurement": "Percentage of tigecycline remaining", "setting": "[5]", "result": 100, "unit": "%"},
      {"measurement": "Total impurity content as a % of initial weight of tigecycline", "setting": "[5]", "result": 0.35, "unit": "%"},
      {"measurement": "Total tigecycline epimer content as a % of initial weight of tigecycline", "setting": "[5]", "result": 0.18, "unit": "%"},
      {"measurement": "Percentage of tigecycline remaining", "setting": "pH 3.5, 0 h, oxygen <1 ppm", "result": 100.0, "unit": "%"},
      {"measurement": "Total impurity content as a % of initial weight of tigecycline", "setting": "pH 3.5, 0 h, oxygen <1 ppm", "result": 0.245, "unit": "%"},
      {"measurement": "Total tigecycline epimer content as a % of initial weight of tigecycline", "setting": "pH 3.5, 0 h, oxygen <1 ppm", "result": 0.133, "unit": "%"},
      {"measurement": "Percentage of tigecycline remaining", "setting": "[6]", "result": 100, "unit": "%"},
      {"measurement": "Total impurity content as a % of initial weight of tigecycline", "setting": "[6]", "result": 0.737, "unit": "%"},
      {"measurement": "Total tigecycline epimer content as a % of initial weight of tigecycline", "setting": "[6]", "result": 0.47, "unit": "%"},
      {"measurement": "Percentage of tigecycline remaining", "setting": "pH 3.5, 8 h, oxygen <1 ppm", "result": 100.19, "unit": "%"},
      {"measurement": "Total impurity content as a % of initial weight of tigecycline", "setting": "pH 3.5, 8 h, oxygen <1 ppm", "result": 0.559, "unit": "%"},
      {"measurement": "Total tigecycline epimer content as a % of initial weight of tigecycline", "setting": "pH 3.5, 8 h, oxygen <1 ppm", "result": 0.383, "unit": "%"},
      {"measurement": "Percentage of tigecycline remaining", "setting": "[7]", "result": 100, "unit": "%"},
      {"measurement": "Total impurity content as a % of initial weight of tigecycline", "setting": "[7]", "result": 1.727, "unit": "%"},
      {"measurement": "Total tigecycline epimer content as a % of initial weight of tigecycline", "setting": "[7]", "result": 1.45, "unit": "%"},
      {"measurement": "Percentage of tigecycline remaining", "setting": "pH 3.5, 24 h, oxygen <1 ppm", "result": 99.26, "unit": "%"},
      {"measurement": "Total impurity content as a % of initial weight of tigecycline", "setting": "pH 3.5, 24 h, oxygen <1 ppm", "result": 1.478, "unit": "%"},
      {"measurement": "Total tigecycline epimer content as a % of initial weight of tigecycline", "setting": "pH 3.5, 24 h, oxygen <1 ppm", "result": 1.351, "unit": "%"},
      {"measurement": "Percentage of tigecycline remaining", "setting": "[8]", "result": 95, "unit": "%"},
      {"measurement": "Total impurity content as a % of initial weight of tigecycline", "setting": "[8]", "result": 5.521, "unit": "%"},
      {"measurement": "Total tigecycline epimer content as a % of initial weight of tigecycline", "setting": "[8]", "result": 4.83, "unit": "%"},
      {"measurement": "Percentage of tigecycline remaining", "setting": "pH 3.5, 72 h, oxygen <1 ppm", "result": 96.03, "unit": "%"},
      {"measurement": "Total impurity content as a % of initial weight of tigecycline", "setting": "pH 3.5, 72 h, oxygen <1 ppm", "result": 4.913, "unit": "%"},
      {"measurement": "Total tigecycline epimer content as a % of initial weight of tigecycline", "setting": "pH 3.5, 72 h, oxygen <1 ppm", "result": 4.671, "unit": "%"},
      {"measurement": "Percentage of tigecycline remaining", "setting": "[9]", "result": 100, "unit": "%"},
      {"measurement": "Total impurity content as a % of initial weight of tigecycline", "setting": "[9]", "result": 0.32, "unit": "%"},
      {"measurement": "Total tigecycline epimer content as a % of initial weight of tigecycline", "setting": "[9]", "result": 0.189, "unit": "%"},
      {"measurement": "Percentage of tigecycline remaining", "setting": "[10]", "result": 100, "unit": "%"},
      {"measurement": "Total impurity content as a % of initial weight of tigecycline", "setting": "[10]", "result": 1.06, "unit": "%"},
      {"measurement": "Total tigecycline epimer content as a % of initial weight of tigecycline", "setting": "[10]", "result": 0.90, "unit": "%"},
      {"measurement": "Percentage of tigecycline remaining", "setting": "[11]", "result": 98, "unit": "%"},
      {"measurement": "Total impurity content as a % of initial weight of tigecycline", "setting": "[11]", "result": 3.129, "unit": "%"},
      {"measurement": "Total tigecycline epimer content as a % of initial weight of tigecycline", "setting": "[11]", "result": 2.90, "unit": "%"},
      {"measurement": "Percentage of tigecycline remaining", "setting": "[12]", "result": 100, "unit": "%"},
      {"measurement": "Total impurity content as a % of initial weight of tigecycline", "setting": "[12]", "result": 0.30, "unit": "%"},
      {"measurement": "Total tigecycline epimer content as a % of initial weight of tigecycline", "setting": "[12]", "result": 0.16, "unit": "%"},
      {"measurement": "Percentage of tigecycline remaining", "setting": "pH 4.5, 0 h, oxygen <1 ppm", "result": 100.0, "unit": "%"},
      {"measurement": "Total impurity content as a % of initial weight of tigecycline", "setting": "pH 4.5, 0 h, oxygen <1 ppm", "result": 0.232, "unit": "%"},
      {"measurement": "Total tigecycline epimer content as a % of initial weight of tigecycline", "setting": "pH 4.5, 0 h, oxygen <1 ppm", "result": 0.116, "unit": "%"},
      {"measurement": "Percentage of tigecycline remaining", "setting": "[13]", "result": 100, "unit": "%"},
      {"measurement": "Total impurity content as a % of initial weight of tigecycline", "setting": "[13]", "result": 0.483, "unit": "%"},
      {"measurement": "Total tigecycline epimer content as a % of initial weight of tigecycline", "setting": "[13]", "result": 0.30, "unit": "%"},
      {"measurement": "Percentage of tigecycline remaining", "setting": "pH 4.5, 8 h, oxygen <1 ppm", "result": 99.69, "unit": "%"},
      {"measurement": "Total impurity content as a % of initial weight of tigecycline", "setting": "pH 4.5, 8 h, oxygen <1 ppm", "result": 0.368, "unit": "%"},
      {"measurement": "Total tigecycline epimer content as a % of initial weight of tigecycline", "setting": "pH 4.5, 8 h, oxygen <1 ppm", "result": 0.233, "unit": "%"},
      {"measurement": "Percentage of tigecycline remaining", "setting": "[14]", "result": 99, "unit": "%"},
      {"measurement": "Total impurity content as a % of initial weight of tigecycline", "setting": "[14]", "result": 0.75, "unit": "%"},
      {"measurement": "Total tigecycline epimer content as a % of initial weight of tigecycline", "setting": "[14]", "result": 0.65, "unit": "%"},
      {"measurement": "Percentage of tigecycline remaining", "setting": "pH 4.5, 24 h, oxygen <1 ppm", "result": 99.72, "unit": "%"}
    ]}
  ]
}
